Data published in patent publication US20220249399A1, “COMPOSITION COMPRISING AN ANTI-OXIDANT TO PRESERVE CORNEAL TISSUE” (University of lowa Research Foundation, priority 2019, published 2022).
“Also recorded” adds a separate entry of the source. Marks after values point to notes of the source that are not given here.

What was measured:
[1] = test system: human donor corneal endothelial cells; test: Mitochondrial respiration assay (Seahorse XFe24 extracellular flux analyzer) of donor corneal endothelium after storage in supplemented Optisol GS; assay type: cell-based; conditions: for ATP Production, Mean (SD) / Maximal Respiration, Mean (SD) / Non-mitochondrial Respiration, Median [IQR] / Proton Leak, Mean (SD) / Spare Respiratory Capacity, Mean (SD) / Basal, Mean (SD): OCR per cell (pmole/min/cell)
Protocol: Human corneal tissue pairs were obtained by Iowa Lions Eye Bank (ILEB) from nondiabetic donors 60-75 years old and stored in Optisol GS (Bausch+Lomb, Irvine, Calif.) at 4° C. following procurement in accordance with Eye Bank Association of America and ILEB policies and procedures. For 5 days prior to testing, but within 9 days of procurement, one stored tissue from a corneal pair was treated with 10 μM CoQ10, while the mate tissue was treated with diluent only as a control. Descemet membrane and endothelial cell punches were collected and mounted onto the bottom of a Seahorse assay plate (cells facing upward). Mitochondrial respiration was assayed by measuring oxygen consumption using the Seahorse XFe24 Extracellular Flux Analyzer (Agilent Technologies, Santa Clara, Calif.) over 120 minutes (9-minute intervals). Punches were labeled with a nuclear counterstain (DAPI) and remaining tissues were mounted onto slides and labeled with 488A-Annexin V, Ethidium Homodimer III, and Hoechst 33342 (Apoptotic, Necrotic, and Healthy Cells Quantification Kit; Biotium, Fremont, Calif.) to assay cell health. Nuclei were counted in each punch to normalize respirometry data. Immunohistochemistry densitometry was measured using ImageJ software.
Human donor whole globe eye pairs were obtained by Iowa Lions Eye Bank (ILEB) and the anterior portion of the eyes were removed. For 14 days, one cornea was stored from a corneal pair treated with 1 mM ascorbate-2-phosphate, while the mate tissue was treated with diluent only as a control. Descemet membrane and endothelial cell punches were collected and mounted onto the bottom of a Seahorse assay plate (cells facing upward). Mitochondrial respiration was assayed by measuring oxygen consumption using the Seahorse XFe24 Extracellular Flux Analyzer (Agilent Technologies, Santa Clara, Calif.) over 120 minutes (9-minute intervals). Punches were labeled with a nuclear counterstain (DAPI) and nuclei were counted in each punch to normalize respirometry data. […]
Tissue preparation and extracellular flux assays for mitochondrial respiration were performed as described in Greiner et al. (2015). In brief, after pre-stripping the EDM, 3 mm diameter EDM punches were mounted in wells of a XF24 microplate (Agilent Technologies, Santa Clara, Calif.). After acclimation for one hour at 37° C. in non-buffered assay media, metabolic activity of the EDM samples was quantified using a commercial kit (XF Cell Mito Stress Test Kits; Agilent Technologies) on a Seahorse XFe24 extracellular flux analyzer (Agilent Technologies). Following extracellular flux analysis, tissues were labeled fluorescently using a 1:1000 Sytox Green nucleic acid stain in the microtiter plate (Life Technologies, Grand Island, N.Y.) and imaged on an Olympus IX-81 inverted microscope (Olympus America, Center Valley, Pa.) using a FITC filter. Cell counts were determined using Image J (https://imagej.nih.gov/ij/download.html) and used to compute the oxygen consumption rate per cell (OCR; pmole/min/cell). Raw OCR values were used to calculate several different key parameters of metabolic function per manufacturer's directions (Agilent Technologies), as in Aldrich et al. (2017). The parameters and calculations used in this study were the main outcome measures, including basal respiration, ATP-associated oxygen consumption, proton [H^+] leak, maximal respiration, spare respiratory capacity, non-mitochondrial respiration, and coupling efficiency as described in Schneider et al. and Goldstein et al. (2018).
Mitochondrial Respiration Assay: 3 mm punches of central and peripheral endothelium-Descemet membrane complex (EDM) were secured to the bottom of cell culture microplate wells or CECs were grown directly onto microplate.

[2] = test system: A549 human lung cancer cells; test: ROS assay, dihydroethidium (DHE) fluorescence by flow cytometry, with or without antimycin A; assay type: cell-based; conditions: for ROS levels (DHE fluorescence) with antimycin A (AM): AM as ROS inducer, p<0.05
Protocol: A549 human lung cancer cells were seeded in 6-well plates at 200,000 cells/well for 40 hours, then the medium was removed, and treatments were added. Ubiquinol (coQ10) was dispersed in RPMI medium at three different concentrations (100, 50, and 10 μM) and added to wells (n=3 each), then the volume of each well was completed to 4 ml with medium. Ubiquinol-γ-cyclodextrin (1:10 molar ratio) complex dispersed in RPMI at three different concentrations (equivalent to 100, 50, and 10 μM of ubiquinol) and added to wells (n=3/each) and the volume of the each well was completed to 4 ml with medium._γ-cyclodextrin was added in amounts equivalent to those associated with 100, 50, and 10 μM of the complex to each well (n=3/each) and the volume of the each well was completed to 4 ml with medium._Six wells were left untreated._After 24 h, media were removed, and wells were washed with 5 mM sodium pyruvate in PBS, trypsinized, then collected in 15 ml tubes by centrifugation. Cells were washed with 5 mM sodium pyruvate in PBS, then re-suspended in 1 ml of the same solution._The reagents were added as described in FIG. 14, then incubated at 40 min._Cells were re-suspended and transferred to round-bottom tubes, and analyzed by flow Cytometry.

[3] = 10 μM CoQ10 (ubiquinol), 5 days in Optisol GS, vs diluent-treated mate cornea, 13 or 14 paired corneas
[4] = 10 μM ubiquinol vs diluent-treated mate cornea, 5 days, n = 13
[5] = 10 μM ubiquinol, 5 days in Optisol-GS, n = 13
[6] = Example 13: 10 μM ubiquinol, 5 days in Optisol-GS, N=13, vs controls
[7] = palmitate-BSA treated tissues (100 μM), 5 days, n = 7

ubiquinol
non-mitochondrial respiration ([1]; 1 μM coQ10, among doses 0.5, 1, 5, 7.5 μM): largest increase in non-mitochondrial respiration
mitochondrial spare respiratory capacity ([1]; 1 μM coQ10, tissues in storage (compared with the 10 μM dose)): did not show a bolstering of mitochondrial spare respiratory capacity function
proton leak increased ([1]; 10 μM CoQ10 (ubiquinol), 5 days in Optisol GS at 4° C., vs diluent-treated mate cornea, 13 or 14 paired corneas): 34%
maximal respiration increased [1, 3]: 97%
spare respiratory capacity increased [1, 3]: 133%
ATP Production, Mean Difference: Ubiquinol-Control (95% CI) [1, 4]: −0.0001 (−0.0033, 0.0032)
Basal, Mean Ratio: Ubiquinol/Control (95% CI) [1, 4]: Ratio: 1.12 (0.88, 1.43)
Coupling Efficiency, Mean Difference: Ubiquinol-Control (95% CI) [1, 4]: −0.0655 (−0.1550, 0.0240)
Maximal Respiration, Mean Ratio: Ubiquinol/Control (95% CI) [1, 4]: Ratio: 1.93 (1.31, 2.85)
Non-mitochondrial Respiration, Median Difference: Ubiquinol-Control (95% CI) [1, 4]: 0.000013^# (−0.00255, 0.00123)
Proton Leak, Mean Ratio: Ubiquinol/Control (95% CI) [1, 4]: Ratio: 1.80 (1.01, 3.21)
Spare Respiratory Capacity, Mean Ratio: Ubiquinol/Control (95% CI) [1, 4]: Ratio: 2.74 (1.61, 4.66)
Coupling Efficiency, Mean (SD) [1, 5]: 0.5303 (0.1141)
ATP Production, Mean (SD) [1, 5]: 0.0116 (0.0049)
Maximal Respiration, Mean (SD) [1, 5]: 0.0998 (0.0799)
Non-mitochondrial Respiration, Median [IQR] [1, 5]: 0.00662
Proton Leak, Mean (SD) [1, 5]: 0.0091 (0.0049)
Spare Respiratory Capacity, Mean (SD) [1, 5]: 0.0781 (0.0734)
Basal, Mean (SD) ([1]; 10 μM ubiquinol, 5 days in Optisol-GS, n = 13 matched tissues): 0.0202 (0.0087)
maximal respiration increased [1, 6]: 93%
proton leak increased [1, 6]: 80%
spare respiratory capacity increased [1, 6]: 174%
Basal, Mean (SD) ([1]; palmitate-BSA treated tissues (100 μM), 5 days in Optisol-GS, n = 7 matched tissues): 0.0251 (0.0138)
Coupling Efficiency, Mean (SD) [1, 7]: 0.5376 (0.1891)
ATP Production, Mean (SD) [1, 7]: 0.0155 (0.0090)
Maximal Respiration, Mean (SD) [1, 7]: 0.1102 (0.0309)
Non-mitochondrial Respiration, Median [IQR] [1, 7]: 0.00809
Proton Leak, Mean (SD) [1, 7]: 0.0106 (0.0075)
Spare Respiratory Capacity, Mean (SD) [1, 7]: 0.0833 (0.0212)
oxygen consumption rate (OCR) of CEC ([1]; ubiquinol supplemented vs non-supplemented CEC (FIG. 1)): High OCR; also recorded: increased oxygen consumption rate
ROS inhibition with an increase in concentration ([2]; 10, 50, 100 μM ubiquinol or equivalent): does not result in any significant change in ROS inhibition
ROS levels (DHE fluorescence) with antimycin A (AM) ([2]; 24 h treatment, listed as Free ubiquinol): failed to decrease ROS levels after AM treatment
ROS levels (DHE fluorescence) with antimycin A (AM) ([2]; 24 h treatment, listed as free ubiquinol): unable to inhibit ROS
ROS levels (DHE fluorescence) without ROS induction by AM ([2]; 24 h treatment, no AM): decrease the ROS levels in the cells below the normal levels
